In patent US6455076B1, “Formulations and methods for reducing skin irritation” (priority 1994, dated 2002):
Where two headings read alike, the source gives them in different places.

Key:
[1] = system: skin irritation caused by lactic acid; format: in vivo, human; settings: for average inhibition of cumulative irritation (Percent Inhibition): cation salt 250 mM in 7.5% lactic acid irritant composition, applied to face, vs equimolar sodium chloride control, average over trials; for Percent Inhibition (cumulative irritation): representative panels, cation 250 mM, 7.5% lactic acid; for Percent Inhibition (cumulative irritation), dose-response: lactic acid irritation protocol
Method: The trials were conducted in a double blind, randomized, vehicle-controlled manner. Various formulations of the invention were tested in over 150 people.
Tests were conducted in multiple panels of from 7 to 12 subjects each. Subjects were instructed not to wear any makeup or facial lotions to the clinic the day of testing. T he subjects were instructed to wash their face with Ivory bar soap in the clinic prior to application of test solutions.
Lactic acid skin-irritant compositions were formulated in an appropriate vehicle prior to application to the skin of the subjects. […] […] The test formulation was applied to a defined portion of the subject's skin, typically the face. Controls were performed by applying a corresponding formulation with an equimolar amount of sodium chloride to a contralateral portion of the subject's skin.
All test solutions (including controls) were applied in a double blind, randomized fashion using the prepared solutions as previously placed in coded vial designated for use on either the right or left side of the face (or other test area). Solutions were typically applied using a cotton swab (six strokes) or sponge applicator to the face and cheek area extending from the midline of the nose over to the center of the cheek and from the cheek bone down to the jaw line. Application was made first to the right side and then to the left.
Sensory assessment scores were recorded for each treated side of the subject's skin every minute for 15 minutes or until three consecutive scores of “zero” irritation were obtained. The following scaled scores were used for sensory assessment:
Symptom scores were cumulated, separately for the cation-treated and control-treated areas, for each individual and also for the panel as a whole. Individuals not reporting a cumulative score of at least “7” on at least one treatment area were excluded (in a blinded fashion) from further analysis in order to ascertain anti-irritant efficacy with respect to the more severely-susceptible test subjects. From a practical standpoint, scores of “0” and “1” on the above scale would be considered highly desirable for a commercial product because such a response would likely not result in a consumer ceasing to use a product. Some consumers, in fact, might view the “barely perceptible” sensations represented by a score of 1 to be an indication that a facial treatment skin care product (especially an exfoliant) was working as advertised. By contrast, irritation scores of “2”, “3” and “4” would likely often result in a consumer never purchasing the product again.

[2] = system: skin irritation; assay: Cation salts formulated in commercial topical cosmetic product, inhibition of skin irritation; format: in vivo; settings: various amounts combined with Elizabeth Arden Visible Difference Refining Toner (alcohol-containing solution)
Description: Cation salts of the invention were formulated at various concentrations in various commercially available topical cosmetic products.

[3] = topical application, lactic acid induced stinging, burning, tingling, itching, erythema

Compound	average inhibition of cumulative irritation (Percent Inhibition) [1] [%]	Percent Inhibition (cumulative irritation) ([1]; vehicle 10% EtOH) [%]	anti-irritant activity in clinical trials (in words) [1, 3]	inhibition of skin irritation (in words) [2]	also measured
[Cl][Al]([Cl])[Cl] [Aluminum chloride, aluminum chloride]	46	43	particularly active as anti-irritants	effective to inhibit skin irritation	Percent Inhibition (cumulative irritation), dose-response ([1]; salt concentration 31 mM): 12%; Percent Inhibition (cumulative irritation), dose-response ([1]; salt concentration 62 mM): 54%; Percent Inhibition (cumulative irritation), dose-response ([1]; salt concentration 125 mM): 50%; Percent Inhibition (cumulative irritation), dose-response ([1]; salt concentration 250 mM): 42%; Percent Inhibition (cumulative irritation), dose-response ([1]; salt concentration 500 mM): 44%
[F][Sn][F] [Stannous fluoride, stannous fluoride]	15	17		effective to inhibit skin irritation	
O=[N+]([O-])[O-].O=[N+]([O-])[O-].[Sn+2] [stannous nitrate]					anti-irritant activity in clinical trials (in words) ([1]; human, in vivo): particularly active as anti-irritants
[Sn+2] [tin(II) (Sn^2+), tin(II)]			effective		
stannous chloride	50		particularly active as anti-irritants		anti-irritant efficacy in panel test (FIGS. 1-4, in words) ([1]; 250 mM, one panel, time course and cumulative irritation): overall efficacy of the subject formulation is clear; Percent Inhibition (cumulative irritation) ([1]; vehicle 33.75% H2O/33.75% Gly/25% EtOH): 50%
